System: PAF induced mortality
Experiment: Prevention of mortality induced by platelet aggregating factor (PAF)
Type: in vivo, mice (CF1)
Settings: Mus musculus, Platelet; oral, PAF 0.10 mg/kg i.v.; read-out: oral ID50 (Inhibiting Dose), PAF induced mortality
Description: (k) Prevention of Mortality Induced by Platelet Aggregating Factor (PAF)
Male CF1 mice weighing 20-30 gms (Carworth Farms Co.) are fed ad libitum.
Racemic 2-[[[2-(acetyloxy)-3-(octadecyloxy)propoxy]hydroxyphosphinyl]oxy]-N,N,N-trimethylethanaminium hydroxide inner salt hemihydrate (PAF) is concentrated in ethanol at a concentration of 1 mg/ml.At the time of experimentation, PAF is diluted in 0.1% BSA (bovine serum albumin) and administered intravenously at a dose of 0.10 mg/kg one hour after 10 mice are dosed with either vehicle (BSA) or drug. Mortality in mice treated with PAF occurs within 30 minutes after i.v. administration.

`CC(C)c1ccc2nc3ccc(C(=O)NCCCCCCn4ccnc4)cn3c(=O)c2c1` [Example 31, 2-(1-methylethyl)-N-[6-(1H-imidazol-1-yl)hexyl]-11-oxo-11H-pyrido[2,1-b]quinazoline-8-carboxamide] was tested, and the ED50 was 17 mg/kg.

From US4551460A, “Pyrido[2,1-b]quinazoline derivatives useful as agents for treatment of allergic conditions and vascular disorders involving thrombosis” (priority 1983, dated 1985)
